Among the data in BindingDB's records for patent US12344597 (Idorsia Pharmaceuticals, 2025) are IC50 values, retold here.

This experiment concerns the target Lysophosphatidic acid receptor 1 (Homo sapiens, UniProt Q92633). As to the kind of experiment: Beta-Arrestin Recruitment Assay. An excerpt: The Tango™ EDG2-bla U2OS cells are obtained from Invitrogen. These cells contain the human LPA1 receptor cDNA linked to a TEV protease site and a Gal4-VP16 transcription factor integrated into the Tango™ GPCR-bla U2OS parental cell line. This parental cell line stably expresses a beta-arrestin/TEV protease fusion protein and the beta-lactamase (bla) reporter gene under the control of a UAS response element. Upon LPA (agonist) binding, LPA1 receptor gets activated, leading to arrestin-protease recruitment and proteolytic release of the transcription factor: The transcription factor then regulates transcription of a beta-lactamase reporter construct, which is measured upon addition of the live-cell substrate.10′000 Tango™ EDG2-bla U2OS cells are seeded in a 384-well black with clear bottom plate in 30 μl Freestyle 293 Expression Medium (Invitrogen) and incubated for 20 h at 37° C., 5% CO2. […] IC50 is the concentration of antagonist inhibiting 50% of the maximal response.
On the technique in general: Arrestin recruitment assays detect the binding of arrestin to an activated receptor.

Each structure is given as a SMILES string.

Lysophosphatidic acid receptor 1, sequence (Q92633 whole entry, the tested form may be a part): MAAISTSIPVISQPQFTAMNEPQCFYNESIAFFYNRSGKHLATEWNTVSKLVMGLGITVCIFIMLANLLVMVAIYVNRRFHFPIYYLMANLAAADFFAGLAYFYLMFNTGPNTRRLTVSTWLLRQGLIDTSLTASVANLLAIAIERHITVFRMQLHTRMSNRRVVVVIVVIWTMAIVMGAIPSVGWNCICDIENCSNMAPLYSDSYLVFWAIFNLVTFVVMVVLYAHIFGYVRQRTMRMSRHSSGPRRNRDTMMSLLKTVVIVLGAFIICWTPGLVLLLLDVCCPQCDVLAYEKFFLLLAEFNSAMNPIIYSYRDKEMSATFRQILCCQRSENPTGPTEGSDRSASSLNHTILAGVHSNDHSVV

For the molecule `Cc1ccc(NC(=O)C2(c3ccccc3C(C)C)CN(CCC#N)C2)c(OC(F)F)n1` [US12344597, Example 11-16], the IC50 worked out at 4 nM.

A word on the IC50: it is the concentration that gives 50% inhibition.
